Measured values from patent publication EP2951180B1, “2,6,7,8 SUBSTITUTED PURINES AS HDM2 INHIBITORS” (Merck Sharp & Dohme Corp., priority 2013, dated 2014).

Biological target: T1, HDM2 (Homo sapiens, UniProt Q00987)
T1 construct: Thioredoxin (N); made in house; host or cells: E. coli strain BL21(DE3)Rosetta
Assay: HDM2 FRET assay (inhibition of binding of FITC labeled p53-pocket peptide to HDM2)
Conditions: 0.5 nM HDM2 (residues 17 to 125), 3nM peptide, two hour incubation at room temperature; read-out: FRET IC50
Procedure, shortened: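 TR-FRET with 0.5 nM His-tagged recombinant HDM2, 3 nM FITC-labelled p53 peptide and 0.25 nM Tb-anti-His antibody in PBS, 0.01% BSA, 0.01% Tween-20, 0.1% DMSO. IC50 from em520/em495 ratio over 10-point dilutions, 4-parameter logistic fit.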

T1 sequence (Q00987 17-125): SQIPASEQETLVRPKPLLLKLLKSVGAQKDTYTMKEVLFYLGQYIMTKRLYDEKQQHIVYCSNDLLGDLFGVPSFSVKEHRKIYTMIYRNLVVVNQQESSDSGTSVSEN

Row | SMILES | IC50 [nM]
1 | C[C@H]1CC[C@H](Cn2c(C3CC3)nc3nc(-c4n[nH]c(=O)o4)nc(-c4cccc(Cl)c4)c32)CC1 [Example 24.1, 5-{6-(3-chlorophenyl)-8-cyclopropyl-7-[(trans-4-methylcyclohexyl)methyl]-7H-purin-2-yl}-1,3,4-oxadiazol-2(3H)-one] | 62.8
2 | C[C@H]1CC[C@H](Cn2c(C3CC3)nc3nc(-c4noc(=O)[nH]4)nc(-c4cccc(Cl)c4)c32)CC1 [Example 24.2, 3-{6-(3-chlorophenyl)-8-cyclopropyl-7-[(trans-4-methylcyclohexyl)methyl]-7H-purin-2-yl}-1,2,4-oxadiazol-5(4H)-one] | 41.7

Same assay, conditions: Table 22; read-out: FRET IC50

Row | SMILES | IC50 [nM]
3 | Cc1nc(C2(c3nc4nc(-c5noc(=O)[nH]5)nc(N[C@H](C)C5CCC5)c4n3C[C@H]3CC[C@H](C)CC3)CC2)c(C)s1 [Example 22.72, 3-(6-{[(1R)-1-cyclobutylethyl]amino}-8-[1-(2,5-dimethyl-1,3-thiazol-4-yl)cyclopropyl]-7-[(trans-4-methylcyclohexyl)methyl] -7H-purin-2-yl)-1,2,4-oxadiazol-5(4H)-one] | 3.04
4 | COC(c1cscn1)c1nc2nc(-c3noc(=O)[nH]3)nc(N[C@H](C)C3CCC3)c2n1C[C@H]1CC[C@H](C)CC1 (stereo partly drawn) [Example 22.74, 3-(6-{[(1R)-1-cyclobutylethyl]amino}-8-[methoxy(1,3-thiazol-4-yl)methyl]-7-[(trans-4-methylcyclohexyl)methyl] -7H-purin-2-yl)-1,2,4-oxadiazol-5(4H)-one] | 2.63
5 | CCOC1(c2nc3nc(-c4noc(=O)[nH]4)nc(N[C@H](C)C4CCC4)c3n2C[C@H]2CC[C@H](C)CC2)CCC1 [Example 22.76, 3-(6-{[(1R)-1-cyclobutylethyl]amino}-8-(1-ethoxycyclobutyl)-7-[(trans-4-methylcyclohexyl)methyl] -7H-purin-2-yl)-1,2,4-oxadiazol-5(4H)-one] | 4.22
6 | C[C@@H](Nc1nc(-c2noc(=O)[nH]2)nc2nc(C(F)(F)c3ccccc3)n(C[C@H]3CC[C@H](C)CC3)c12)C1CCC1 [Example 22.79, 3-(6-{[(1R)-1-cyclobutylethyl]amino}-8-[difluoro(phenyl)methyl]-7-[(trans-4-methylcyclohexyl)methyl]-7H-purin-2-yl)-1,2,4-oxadiazol-5(4H)-one] | 3.36
7 | C[C@@H](Nc1nc(-c2noc(=O)[nH]2)nc2nc(C3OCc4ccccc43)n(C[C@H]3CC[C@H](C)CC3)c12)C1CCC1 (stereo partly drawn) [Example 22.80, 3-(6-{[(1R)-1-cyclobutylethyl]amino}-8-(1,3-dihydro-2-benzofuran-1-yl)-7-[(trans-4-methylcyclohexyl)methyl]-7H-purin-2-yl)-1,2,4-oxadiazol-5(4H)-one] | 2.47
8 | C[C@@H](Nc1nc(-c2noc(=O)[nH]2)nc2nc(C3(c4ccccc4)CCO3)n(C[C@H]3CC[C@H](C)CC3)c12)C1CCC1 (stereo partly drawn) [Example 22.81, 3-[6-{[(1R)-1-cyclobutylethyl]amino}-7-[(trans-4-methylcyclohexyl)methyl]-8-(2-phenyloxetan-2-yl)-7H-purin-2-yl]-1,2,4-oxadiazol-5(4H)-one] | 11
9 | CCC(CO)c1nc2nc(-c3noc(=O)[nH]3)nc(N[C@H](C)C3CCC3)c2n1C[C@H]1CC[C@H](C)CC1 (stereo partly drawn) [Example 22.82, 3-(6-{[(1R)-1-cyclobutylethyl]amino}-8-[1-(hydroxymethyl)propyl]-7-[(trans-4-methylcyclohexyl)methyl]-7H-purin-2-yl)-1,2,4-oxadiazol-5(4H)-one] | 10.1

Same assay, conditions: Table 23; read-out: FRET IC50

Row | SMILES | IC50 [nM]
10 | C[C@H]1CC[C@H](Cn2c(C(=O)C3CCOCC3)nc3nc(-c4noc(=O)[nH]4)nc(-c4cccc(Cl)c4)c32)CC1 [Example 23.3, 3-[6-(3-chlorophenyl)-7-[(trans-4-methylcyclohexyl)methyl]-8-(tetrahydro-2H-pyran-4-ylcarbonyl)-7H-purin-2-yl]-1,2,4-oxadiazol-5(4H)-one] | 21.4
11 | C[C@H]1CC[C@H](Cn2c(C(=O)C3CCCCC3)nc3nc(-c4noc(=O)[nH]4)nc(-c4cccc(Cl)c4)c32)CC1 [Example 23.6, 3-{6-(3-chlorophenyl)-8-(cyclohexylcarbonyl)-7-[(trans-4-methylcyclohexyl)methyl] -7H-purin-2-yl}-1,2,4-oxadiazol-5(4H)-one] | 13.9
12 | C[C@H]1CC[C@H](Cn2c(C(=O)C3CCOCC3)nc3nc(-c4n[nH]c(=O)o4)nc(-c4cccc(Cl)c4)c32)CC1 [Example 23.9, 5-[6-(3-chlorophenyl)-7-[(trans-4-methylcyclohexyl)methyl] -8-(tetrahydro-2H-pyran-4-ylcarbonyl)-7H-purin-2-yl]-1,3,4-oxadiazol-2(3H)-one] | 24.6
13 | C[C@H]1CC[C@H](Cn2c(C3(F)COC3)nc3nc(-c4noc(=O)[nH]4)nc(-c4cncc(Cl)c4)c32)CC1 [Example 23.28, 3-{6-(5-chloropyridin-3-yl)-8-(3-fluorooxetan-3-yl)-7-[(trans-4-methylcyclohexyl)methyl]-7H-purin-2-yl}-1,2,4-oxadiazol-5(4H)-one] | 62.8
14 | C[C@H]1CC[C@H](Cn2c(C3(F)CCC3)nc3nc(-c4n[nH]c(=O)o4)nc(-c4cncc(Cl)c4)c32)CC1 [Example 23.38, 5-{6-(5-chloropyridin-3-yl)-8-(1-fluorocyclobutyl)-7-[(trans-4-methylcyclohexyl)methyl] -7H-purin-2-yl}-1,3,4-oxadiazol-2(3H)-one] | 31.1
15 | C[C@H]1CC[C@H](Cn2c(C3(F)CCCCC3)nc3nc(-c4noc(=O)[nH]4)nc(-c4cncc(Cl)c4)c32)CC1 [Example 23.39, 3-{6-(5-chloropyridin-3-yl)-8-(1-fluorocyclohexyl)-7-[(trans-4-methylcyclohexyl)methyl] -7H-purin-2-yl}-1,2,4-oxadiazol-5(4H)-one] | 18.1
16 | C[C@H]1CC[C@H](Cn2c(C3(F)CCCC3)nc3nc(-c4n[nH]c(=O)o4)nc(-c4cncc(Cl)c4)c32)CC1 [Example 23.40, 5-{6-(5-chloropyridin-3-yl)-8-(1-fluorocyclopentyl)-7-[(trans-4-methylcyclohexyl)methyl] -7H-purin-2-yl}-1,3,4-oxadiazol-2(3H)-one] | 15
17 | C[C@H]1CC[C@H](Cn2c(C(=O)c3ccccc3)nc3nc(-c4noc(=O)[nH]4)nc(-c4cccc(Cl)c4)c32)CC1 [Example 23.43, 3-[6-(3-chlorophenyl)-7-[(trans-4-methylcyclohexyl)methyl]-8-(phenylcarbonyl)-7H-purin-2-yl]-1,2,4-oxadiazol-5(4H)-one] | 72.7
18 | C[C@H]1CC[C@H](Cn2c(C3(F)CCCCC3)nc3nc(-c4n[nH]c(=O)o4)nc(-c4cncc(Cl)c4)c32)CC1 [Example 23.56, 5-{6-(5-chloropyridin-3-yl)-8-(1-fluorocyclohexyl)-7-[(trans-4-methylcyclohexyl)methyl] -7H-purin-2-yl}-1,3,4-oxadiazol-2(3H)-one] | 10.7
19 | COC1(c2nc3nc(-c4noc(=O)[nH]4)nc(-c4cncc(Cl)c4)c3n2C[C@H]2CC[C@H](C)CC2)CCC1 [Example 23.62, 3-{6-(5-chloropyridin-3-yl)-8-(1-methoxycyclobutyl)-7-[(trans-4-methylcyclohexyl)methyl] -7H-purin-2-yl}-1,2,4-oxadiazol-5(4H)-one] | 13.1
20 | COC1(c2nc3nc(-c4noc(=O)[nH]4)nc(-c4cncc(Cl)c4)c3n2C[C@H]2CC[C@H](C)CC2)COC1 [Example 23.70, 3-{6-(5-chloropyridin-3-yl)-8-(3-methoxyoxetan-3-yl)-7-[(trans-4-methylcyclohexyl)methyl] -7H-purin-2-yl}-1,2,4-oxadiazol-5(4H)-one] | 9.44
21 | COC1(c2nc3nc(-c4noc(=O)[nH]4)nc(-c4cncc(Cl)c4)c3n2C[C@H]2CC[C@H](C)CC2)CCCCC1 [Example 23.75, 3-{6-(5-chloropyridin-3-yl)-8-(1-methoxycyclohexyl)-7-[(trans-4-methylcyclohexyl)methyl] -7H-purin-2-yl}-1,2,4-oxadiazol-5(4H)-one] | 30.7
22 | COC1(c2nc3nc(-c4n[nH]c(=O)o4)nc(-c4cncc(Cl)c4)c3n2C[C@H]2CC[C@H](C)CC2)CCCCC1 [Example 23.76, 5-{6-(5-chloropyridin-3-yl)-8-(1-methoxycyclohexyl)-7-[(trans-4-methylcyclohexyl)methyl] -7H-purin-2-yl}-1,3,4-oxadiazol-2(3H)-one] | 14.1
23 | COC1(c2nc3nc(-c4noc(=O)[nH]4)nc(-c4cncc(Cl)c4)c3n2C[C@H]2CC[C@H](C)CC2)CCCC1 [Example 23.77, 3-{6-(5-chloropyridin-3-yl)-8-(1-methoxycyclopentyl)-7-[(trans-4-methylcyclohexyl)methyl] -7H-purin-2-yl}-1,2,4-oxadiazol-5(4H)-one] | 8.06
24 | C[C@H]1CC[C@H](Cn2c(C3(c4ccccc4F)CC3)nc3nc(-c4noc(=O)[nH]4)nc(-c4cncc(Cl)c4)c32)CC1 [Example 23.100, 3-{6-(5-chloropyridin-3-yl)-8-[1-(2-fluorophenyl)cyclopropyl] -7-[(trans-4-methylcyclohexyl)methyl] -7H-purin-2-yl}-1,2,4-oxadiazol-5(4H)-one] | 5.94
25 | Cc1ocnc1C1(c2nc3nc(-c4noc(=O)[nH]4)nc(-c4cccc(Cl)c4)c3n2C[C@H]2CC[C@H](C)CC2)CC1 [Example 23.101, 3-{6-(3-chlorophenyl)-7-[(trans-4-methylcyclohexyl)methyl]-8-[1-(5-methyl-1,3-oxazol-4-yl)cyclopropyl]-7H-purin-2-yl}-1,2,4-oxadiazol-5(4H)-one] | 30.1
26 | C[C@H]1CC[C@H](Cn2c(C3(c4ccccn4)CC3)nc3nc(-c4nc(=O)o[nH]4)nc(-c4cccc(Cl)c4)c32)CC1 [Example 23.102, 3-[6-(3-chlorophenyl)-7-[(trans-4-methylcyclohexyl)methyl] -8-(1-pyridin-2-ylcyclopropyl)-7H-purin-2-yl]-1,2,4-oxadiazol-5(2H)-one] | 17
